One may read the melting point as the temperature of the solid-liquid transition.

As for `CCOC(=O)c1cc(C(=O)c2ccc(C)cc2)n2c1ccc1cc(C)ccc12`, the melting point was in the range of 155 to 156 °C.

As to `CCOC(=O)c1cc(C(=O)c2ccccc2)n2c1ccc1cc(C)ccc12`, the melting point was 139 to 140 °C.

Consider `CCOC(=O)c1cc(C(=O)c2ccc(F)cc2)n2c1ccc1cc(C)ccc12`, for which the melting point lay within 163 to 164 °C.

In turn, `CCOC(=O)c1cc(C(=O)c2ccccc2[N+](=O)[O-])n2c1ccc1cc(C)ccc12` [Compound 4d, Ethyl 7-methyl-1-(2-nitrobenzoyl)pyrrolo[1,2-a]quinoline-3-carboxylate] showed a melting point of 174 to 175 °C.

For `CCOC(=O)c1cc(C(=O)c2ccc(Br)cc2)n2c1ccc1cc(C)ccc12` [Compound 4e, Ethyl 1-(4-bromobenzoyl)-7-methylpyrrolo[1,2-a]quinoline-3-carboxylate], the melting point lay within 180 to 181 °C.

Compound `CCOC(=O)c1cc(C(=O)c2cc(C(F)(F)F)cc(C(F)(F)F)c2)n2c1ccc1cc(C)ccc12` [Compound 4f, Ethyl 1-(3,5-bis(trifluoromethyl)benzoyl)-7-methylpyrrolo[1,2-a]quinoline-3-carboxylate] showed a melting point of 223 to 224 °C.

The values above are taken from patent publication US11845746B1 (priority 2023, dated 2023).
